These results are taken from patent US9072691B2, “Nutritional supplement for disinhibiting therapy of psychiatric patients” (priority 2012, dated 2015).

The conditions of data set [1]: cited from earlier work.
Data set [2] can be described thus: Individual components administered separately from the other components. It counts as in vivo, human. The settings on record: administered separately from the other components of the invention. The text has this:
Thus, the invention is named “Formula of activity”. The invention offers methods of treating patients who refuse food and can die as a result. […] It is possible that this new effect is produced by a new substance that is formed as a result of the interaction of the components of the invention with each other or with other naturally occurring substances in the body. The components may exert their effect by through the reticular formation in the brain, which is the regulating center of different brain functions. The reticular formation coordinates the interactions between all structures of the brain. It analyzes and corrects the functions of the brain structures and ensures their proper hierarchical dependencies, as well as the readiness of the central nervous system to perform its functions.

Data set [3] in a line: Effect of composition on selected patients and disorders (case reports). Type of data set: in vivo, human. An excerpt:
The following are several of many patients who were successfully treated by the invention.

Regarding `CCC1(CCC(C)C)C(=O)N=C([O-])NC1=O.[Na+]` (stereo not shown) [Barbamyl], the “Dependency on repeated injections” value in data set [1] is “lead to psychological and physiological dependency on this substance”.

For `O=S(=O)([O-])[O-].[Mg+2]` [Magnesium sulfate, magnesium sulfate], the “Stimulating or disinhibiting effect / effect on appetite when administered alone” value in data set [2] is “does not lead to a desired stimulating or disinhibiting effect”.

With `CN1CCN(CCCN2c3ccccc3Sc3ccc(C(F)(F)F)cc32)CC1` [Stelazine], the Clinical outcome in data set [3] (Patient N, postpartum psychosis, 5 mg once per day first week, then 1 mg two times a day) was “improved regarding their condition and delusional ideas; however they remained apathetic, fatigued and indifferent”.

In the case of `O=S(=O)([O-])CC(S)CS.[Na+]` (stereo not shown) [Unithiol], in data set [2], the “Stimulating or disinhibiting effect / effect on appetite when administered alone” value is given as “does not lead to a desired stimulating or disinhibiting effect”.

As for `CN(C)CCCN1c2ccccc2Sc2ccc(Cl)cc21` [aminazine], the Effect after administration entry in data set [3] (Patient B, paranoid schizophrenia, after disinhibition, 50 mg intravenously) is “the patient fell asleep”.

Consider `CN1C(=O)CN=C(c2ccccc2)c2cc(Cl)ccc21` [valium], for which, in data set [3] (Patient S, closed head trauma, before the course of the invention, injection), the Sleep entry is reported as “they would fall asleep only after injection of valium”.

For the compound calcium pantothenate, the “Stimulating or disinhibiting effect / effect on appetite when administered alone” value in data set [2] is “does not lead to a desired stimulating or disinhibiting effect”.
